Experimental data: the NIST ThermoML archive (doi:10.1016/j.jct.2010.08.019)

Test: xn = mol fraction of the nth substance listed
Details: for surface tension liquid-gas: Wilhelmy-plate method; for viscosity / mass density: 101 kPa, Liquid; for viscosity: Falling or rolling sphere viscometry; for mass density: Vibrating tube method

C1CCOCC1 [tetrahydropyran] + CC(C)O
Details | mass density [kg/m3] | surface tension liquid-gas [mN/m] | viscosity [mPa·s]
293.15 K, x2 = 0 | 884.27 | 27.5 | 0.86
293.15 K, x2 = 0.0501 | 879.89 | 27.2 | 0.852
293.15 K, x2 = 0.0999 | 875.5 | 26.9 | 0.845
293.15 K, x2 = 0.1499 | 871.09 | 26.6 | 0.849
293.15 K, x2 = 0.2003 | 866.62 | 26.3 | 0.85
293.15 K, x2 = 0.2506 | 862.13 | 26 | 0.855
293.15 K, x2 = 0.2999 | 857.7 | 25.7 | 0.864
293.15 K, x2 = 0.35 | 853.13 | 25.4 | 0.877
293.15 K, x2 = 0.3999 | 848.52 | 25 | 0.899
293.15 K, x2 = 0.4499 | 843.87 | 24.7 | 0.922
293.15 K, x2 = 0.5001 | 839.07 | 24.4 | 0.947
293.15 K, x2 = 0.5502 | 834.22 | 24 | 0.983
293.15 K, x2 = 0.6001 | 829.28 | 23.7 | 1.032
293.15 K, x2 = 0.6499 | 824.23 | 23.4 | 1.095
293.15 K, x2 = 0.7001 | 819.03 | 23.1 | 1.164
293.15 K, x2 = 0.7499 | 813.78 | 22.7 | 1.256
293.15 K, x2 = 0.8 | 808.34 | 22.4 | 1.378
293.15 K, x2 = 0.8501 | 802.8 | 22.1 | 1.535
293.15 K, x2 = 0.9001 | 797.15 | 21.9 | 1.739
293.15 K, x2 = 0.9499 | 791.36 | 21.6 | 2.013
303.15 K, x2 = 0 | 874.07 | 26.2 | 0.749
303.15 K, x2 = 0.0502 | 869.6 | 26 | 0.737
303.15 K, x2 = 0.1001 | 865.24 | 25.7 | 0.729
303.15 K, x2 = 0.1501 | 860.87 | 25.4 | 0.728
303.15 K, x2 = 0.1998 | 856.52 | 25.1 | 0.725
303.15 K, x2 = 0.2499 | 852.09 | 24.8 | 0.729
303.15 K, x2 = 0.3 | 847.66 | 24.5 | 0.737
303.15 K, x2 = 0.3499 | 843.17 | 24.2 | 0.75
303.15 K, x2 = 0.4001 | 838.59 | 23.9 | 0.76
303.15 K, x2 = 0.4501 | 833.98 | 23.6 | 0.779
303.15 K, x2 = 0.5001 | 829.29 | 23.3 | 0.8
303.15 K, x2 = 0.55 | 824.54 | 22.9 | 0.825
303.15 K, x2 = 0.6 | 819.65 | 22.6 | 0.861
303.15 K, x2 = 0.65 | 814.69 | 22.3 | 0.905
303.15 K, x2 = 0.6999 | 809.62 | 22 | 0.958
303.15 K, x2 = 0.7499 | 804.47 | 21.7 | 1.021
303.15 K, x2 = 0.8001 | 799.17 | 21.4 | 1.108
303.15 K, x2 = 0.85 | 793.77 | 21.2 | 1.214
303.15 K, x2 = 0.8998 | 788.25 | 20.9 | 1.356
303.15 K, x2 = 0.9499 | 782.59 | 20.6 | 1.533
313.15 K, x2 = 0 | 863.76 | 25.1 | 0.658
313.15 K, x2 = 0.05 | 859.32 | 24.9 | 0.645
313.15 K, x2 = 0.1 | 854.97 | 24.6 | 0.639
313.15 K, x2 = 0.1501 | 850.64 | 24.3 | 0.634
313.15 K, x2 = 0.2 | 846.27 | 24.1 | 0.633
313.15 K, x2 = 0.2499 | 841.92 | 23.8 | 0.635
313.15 K, x2 = 0.2997 | 837.55 | 23.5 | 0.638
313.15 K, x2 = 0.3499 | 833.09 | 23.2 | 0.646
313.15 K, x2 = 0.4 | 828.58 | 22.9 | 0.656
313.15 K, x2 = 0.4504 | 823.98 | 22.6 | 0.667
313.15 K, x2 = 0.5001 | 819.37 | 22.3 | 0.682
313.15 K, x2 = 0.55 | 814.68 | 22 | 0.704
313.15 K, x2 = 0.5999 | 809.9 | 21.7 | 0.725
313.15 K, x2 = 0.65 | 805.04 | 21.4 | 0.758
313.15 K, x2 = 0.7001 | 800.07 | 21.1 | 0.796
313.15 K, x2 = 0.7502 | 794.95 | 20.8 | 0.844
313.15 K, x2 = 0.7999 | 789.8 | 20.6 | 0.901
313.15 K, x2 = 0.85 | 784.49 | 20.3 | 0.976
313.15 K, x2 = 0.8998 | 779.1 | 20.1 | 1.069
313.15 K, x2 = 0.9498 | 773.58 | 19.8 | 1.187
323.15 K, x2 = 0 | 666.8 | 23.8 | 0.565
323.15 K, x2 = 0.05 | – | 23.5 | 0.562
323.15 K, x2 = 0.0501 | 667.65 | – | –
323.15 K, x2 = 0.1 | 669.08 | 23.3 | 0.558
323.15 K, x2 = 0.15 | 670.98 | – | –
323.15 K, x2 = 0.1501 | – | 23.1 | 0.553
323.15 K, x2 = 0.1998 | 673.08 | – | –
323.15 K, x2 = 0.2 | – | 22.8 | 0.55
323.15 K, x2 = 0.2499 | – | 22.6 | 0.55
323.15 K, x2 = 0.25 | 675.42 | – | –
323.15 K, x2 = 0.2997 | – | 22.3 | 0.553
323.15 K, x2 = 0.3 | 677.99 | – | –
323.15 K, x2 = 0.3499 | – | 22 | 0.557
323.15 K, x2 = 0.35 | 680.86 | – | –
323.15 K, x2 = 0.4 | 683.93 | 21.8 | 0.563
323.15 K, x2 = 0.4499 | 687.34 | – | –
323.15 K, x2 = 0.4504 | – | 21.5 | 0.571
323.15 K, x2 = 0.5 | 691.07 | – | –
323.15 K, x2 = 0.5001 | – | 21.2 | 0.582
323.15 K, x2 = 0.5501 | 695.17 | 20.9 | 0.596
323.15 K, x2 = 0.6 | 699.74 | 20.7 | 0.615
323.15 K, x2 = 0.65 | 704.78 | 20.4 | 0.635
323.15 K, x2 = 0.6999 | – | 20.1 | 0.661
323.15 K, x2 = 0.7 | 710.22 | – | –
323.15 K, x2 = 0.7499 | 716.22 | – | –
323.15 K, x2 = 0.7502 | – | 19.9 | 0.697
323.15 K, x2 = 0.7999 | 722.88 | – | –
323.15 K, x2 = 0.8002 | – | 19.6 | 0.739
323.15 K, x2 = 0.85 | 730.48 | – | –
323.15 K, x2 = 0.8501 | – | 19.4 | 0.79
323.15 K, x2 = 0.8998 | – | 19.2 | 0.85
323.15 K, x2 = 0.9 | 738.82 | – | –
323.15 K, x2 = 0.95 | 748.16 | – | –
323.15 K, x2 = 0.9501 | – | 19 | 0.927
